Assay results from patent US20180344702A1, “METHODS FOR TREATING PATIENTS WITH HEMATOLOGIC MALIGNANCIES” (Aptose Biosciences, Inc., priority 2017, published 2018).

Assays:
Ba/F3-D835G (FLT3-D835G) = experiment: Antiproliferative activity (Table 6); assay type: cell-based, Murin; conditions: 72 h
BTK C481S = BTK C481S (Homo sapiens, UniProt Q06187, C481S); experiment: Comparative potency against BTK (Table 8); assay type: biochemical; conditions: x printed without key
FLT3(D835H) = molecular target: T1, FLT3(D835H) (Homo sapiens, UniProt P36888, D835H); experiment: Binding constant (Kd), kinase-tagged phage / affinity bead competition binding with qPCR readout
T1 construct: made in house; host or cells: E. coli BL21-derived host (T7 phage) or HEK-293

Ba/F3-FLT3 (FLT3-WT) = experiment: Antiproliferative activity (Table 6); assay type: cell-based, Murin; conditions: 72 h
KG-1 cells = experiment: Cell-cycle dysregulation (flow cytometry); assay type: cell-based; conditions: dose-dependent
Experimental: (§1) Cell-cycle analysis: Cells were treated with vehicle, DMSO or Compound 7 and were stained with PI and EdU, and then analyzed by flow cytometry to determine the phases of cell cycle.

[1] = tested on: isogenic BA/F3 cells with FLT3 mutations; experiment: Cell-cycle dysregulation (flow cytometry); assay type: cell-based; conditions: dose-dependent
Experimental: as §1

NOMO-1 cells = experiment: Cell-cycle dysregulation (flow cytometry); assay type: cell-based; conditions: dose-dependent
Experimental: as §1

MV411 cells = experiment: Cell-cycle analysis (EdU/PI flow cytometry); assay type: cell-based, human; conditions: dose-dependent
Experimental: as §1

Ramos [2] = experiment: Apoptosis in B-cell malignancies (annexin V/PI, cleaved PARP); assay type: cell-based; conditions: increasing concentrations
Experimental: Mechanistic studies were undertaken to determine the mechanism of action for Compound 7. The apoptotic state of treated cells was determined by staining with annexin V and propidium iodide (PI), then analysis with the BD Accuri C6 flow cytometer, whereby live cells are annexin V/PI negative, early apoptotic cells are annexin V positive and late apoptotic cells are annexin V and PI positive. In addition production of cleaved PARP, a classic apoptotic marker, was assayed by western blotting with specific antibodies.

BTK WT = BTK WT (Homo sapiens, UniProt Q06187); experiment: Comparative potency against BTK (Table 8); assay type: biochemical; conditions: Table 8, wild-type BTK
Chain of BTK WT (Q06187 whole entry): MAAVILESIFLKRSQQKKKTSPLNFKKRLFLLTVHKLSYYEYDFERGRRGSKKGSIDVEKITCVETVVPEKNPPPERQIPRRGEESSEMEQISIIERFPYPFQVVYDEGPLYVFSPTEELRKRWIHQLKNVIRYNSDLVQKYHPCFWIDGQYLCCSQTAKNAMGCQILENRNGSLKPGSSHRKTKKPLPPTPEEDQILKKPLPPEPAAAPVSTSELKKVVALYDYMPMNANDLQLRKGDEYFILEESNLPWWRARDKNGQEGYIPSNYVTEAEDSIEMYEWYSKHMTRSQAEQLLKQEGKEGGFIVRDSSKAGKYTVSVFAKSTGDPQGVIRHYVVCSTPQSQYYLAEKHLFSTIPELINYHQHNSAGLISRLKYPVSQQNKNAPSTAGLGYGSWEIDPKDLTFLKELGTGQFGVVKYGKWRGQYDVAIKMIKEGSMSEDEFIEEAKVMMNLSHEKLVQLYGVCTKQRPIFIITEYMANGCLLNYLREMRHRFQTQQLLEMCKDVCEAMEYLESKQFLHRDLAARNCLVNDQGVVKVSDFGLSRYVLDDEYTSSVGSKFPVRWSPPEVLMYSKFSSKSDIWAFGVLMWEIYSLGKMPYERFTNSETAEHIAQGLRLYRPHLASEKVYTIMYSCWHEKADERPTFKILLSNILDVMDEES

[3] = tested on: MOLM14 (FLT3-ITD, t(9:11)); experiment: Antiproliferative activity (Table 6); assay type: cell-based; conditions: Homo sapiens, MOLM-14, 72 h
ITK = ITK (Homo sapiens, UniProt Q08881); experiment: Key off-targets (Table 8); assay type: biochemical
Chain of ITK (Q08881 whole entry): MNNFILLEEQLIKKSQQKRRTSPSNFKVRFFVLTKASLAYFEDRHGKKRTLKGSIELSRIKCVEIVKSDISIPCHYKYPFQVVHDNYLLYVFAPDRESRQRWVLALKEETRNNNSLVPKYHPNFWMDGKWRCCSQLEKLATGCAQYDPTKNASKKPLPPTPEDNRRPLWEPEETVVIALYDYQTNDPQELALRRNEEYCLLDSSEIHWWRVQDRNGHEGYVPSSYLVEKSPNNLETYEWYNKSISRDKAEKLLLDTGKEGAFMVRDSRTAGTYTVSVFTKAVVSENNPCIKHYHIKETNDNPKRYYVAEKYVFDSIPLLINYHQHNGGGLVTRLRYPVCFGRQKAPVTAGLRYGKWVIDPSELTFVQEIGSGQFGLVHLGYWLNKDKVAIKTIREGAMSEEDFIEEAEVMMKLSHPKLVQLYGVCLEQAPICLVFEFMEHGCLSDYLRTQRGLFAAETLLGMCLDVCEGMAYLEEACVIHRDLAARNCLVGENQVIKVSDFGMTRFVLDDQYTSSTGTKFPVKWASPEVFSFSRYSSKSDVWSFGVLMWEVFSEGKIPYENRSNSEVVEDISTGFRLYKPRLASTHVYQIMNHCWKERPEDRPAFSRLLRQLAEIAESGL

FLT3(WT) = FLT3(WT) (Homo sapiens, UniProt P36888); experiment: Binding constant (Kd), competition binding with qPCR readout
[4] = tested on: Aurora kinase in Mino, Ramos and SU-DHL6; experiment: Aurora kinase inhibition in B-cell lines (Western blot); assay type: cell-based; conditions: FIGS. 13A-13C
Experimental: Inhibition of Aurora kinase activity was measured by western blotting for phosphorylation levels of Aurora kinases or and down-stream targets and by cell cycle and DNA content analysis. Whole cell extracts from Compound 7 treated cells were resolved by gel electrophoresis and transferred to nitrocellulose membranes and inhibition of Aurora kinase A/B and H3S10 phosphorylation was detected with specific antibodies. DNA synthesis and cell cycle phase was assessed by staining compound 7 of vehicle treated cells with 5-ethynyl-2′deoxyuridine (Edu) Alexa Fluor 488 and PI.

MV4-11 cells = experiment: Apoptosis of MV4-11 cells (Annexin V, Western blot); assay type: cell-based, human
Experimental: The data presented in FIGS. 7A-7C, FIGS. 8A-8B, and FIGS. 17A-17J were generated using well-known protocols for measuring apoptosis, which are readily apparent to a skilled artisan. Without being bound by any theory, an overview of the procedure can be found in, for example, Rieger et al., Modified Annexin V/Propidium Iodide Apoptosis Assay For Accurate Assessment of Cell Death, J VI. Exp. 2011; (50): 2597.
IC50s and EC50s: Certain cell viability studies described herein were assessed using the Tryptan blue dye exclusion method or the MTS assay. Certain apoptosis studies and related studies described herein were determined via FACS by annexin V positivity.

[5] = tested on: MV4-11 (FLT3-ITD, t(4:11)); experiment: Antiproliferative activity (Table 6); assay type: cell-based; conditions: Homo sapiens, MV4-11, 72 h
FLT3(ITD) = FLT3(ITD) (Homo sapiens, UniProt P36888); experiment: Binding constant (Kd), competition binding with qPCR readout; set-up: other: FLT3(ITD); kinase-tagged T7 phage strains were prepared in an E. coli host derived from the BL21 strain; fused on or other part: T7 phage fusion or DNA tag for qPCR detection
[6] = tested on: Ba/F3 cells transfected with FLT3 WT; experiment: Cytotoxicity in isogenic transfected Ba/F3 cells (Table 4); assay type: cell-based, Murin; conditions: Mus musculus, BaF3, read-out: IC50 in Transfected Ba/F3 cells, FLT3 WT
[7] = tested on: BTK pathway in EOL-1 cells; experiment: Western blot analysis in EOL-1 cells; assay type: cell-based; conditions: 0.5, 5.0, and 50 nM, FIG. 3
Experimental: (§2) Immunoblot assays: Cells were treated with Compound 7 at various concentrations and collected for cell lysates. The total and phosphorylated levels of the indicated proteins were determined by Western Blot.

[8] = tested on: Aurora kinase in MV4-11 cells; experiment: Cell signaling Western blot; assay type: cell-based, human; conditions: FIG. 24
Experimental: as §2

[9] = tested on: MOLM13 (FLT3-ITD, t(9:11)); experiment: Antiproliferative activity (Table 6); assay type: cell-based; conditions: Homo sapiens, MOLM-13, 72 h
[10] = tested on: Ba/F3-ITD + 691 (ITD + F691L); experiment: Antiproliferative activity (Table 6); assay type: cell-based, Murin; conditions: 72 h
Ramos [11] = experiment: Polyploidy in B-cell lines (Edu and PI staining, FACS); assay type: cell-based; conditions: 5 nM
Experimental: Further mechanistic studies were undertaken to fully elucidate Compound 7's potent cytotoxicity. B-cell lines were treated with vehicle or Compound 7 for 24-72 hours and the increase in DNA content or polyploidy phenotype was assessed using Edu and PI staining followed by FACS analysis using the BD Accuri C6 flow cytometer.
Mino and Ramos cell lines were treated with increasing concentrations of.

Chain of BTK C481S (Q06187 whole entry C481S): as the sequence (Q06187 whole entry) above, with C481S counted along it

Cc1cnc(-c2ccc(-c3ccc(NC(=O)Nc4c(F)cc(F)cc4F)cc3F)c3c2C(=O)NC3)[nH]1 [Compound 7, 1-{3-fluoro-4-[7-(5-methyl-1H-imidazol-2-yl)-1-oxo-2,3-dihydro-1H-isoindol-4-yl]-phenyl}-3-(2,4,6-trifluorophenyl)urea]
IC50 (Ba/F3-D835G (FLT3-D835G)): 0.12 nM | IC50 (BTK C481S): 2.5 nM | Kd (FLT3(D835H)): 2.2 nM | IC50 (Ba/F3-FLT3 (FLT3-WT)): 9.49 nM | Cell-cycle dysregulation (KG-1 cells): induce cell-cycle dysregulation | Cell-cycle dysregulation [1]: induce cell-cycle dysregulation | Cell-cycle dysregulation (NOMO-1 cells): induce cell-cycle dysregulation | G0/G1 cell-cycle arrest (MV411 cells): induce G0/G1 cell-cycle arrest | Apoptosis induction versus ibrutinib (Ramos [2]): induced apoptosis more effectively than ibrutinib at all concentrations tested | IC50 (BTK WT): 5 nM | IC50 [3]: 0.92 nM | IC50 (ITK): 4.3 nM | Kd (FLT3(WT)): 0.24 nM | Aurora kinase inhibition (phosphorylation patterns) [4]: effective as an Aurora Kinase inhibitor | Time dependency of apoptosis (MV4-11 cells; MV4-11 cells, 1, 3, 6, 24 hour): induces apoptosis in a time dependent manner | Apoptosis induction (MV4-11 cells; MV411 cells, 24 hours, various concentrations): induces apoptosis | IC50 [5]: 0.17 nM | Kd (FLT3(ITD)): 3.1 nM | IC50 [6]: 11.3 nM | Inhibition of BTK pathway (Western blot) [7]: inhibits BTK pathway | Aurora kinase activity and signaling (Western blot) [8]: inhibits Aurora kinase activity and signaling | IC50 [9]: 0.82 nM | IC50 [10]: 0.43 nM | Polyploidy (>4n) followed by apoptosis (Ramos [11]): effectively induced polyploidy (>4n) followed by apoptosis
